Measured values: US20040171489A1, “Synergistic active compound combinations for controlling harmful plants” (priority 1998, published 2004)

Key:
winter barley [1] = assay: Example 9 field trials, application 1-3 leaf stage broad-leaved weeds: crop damage; type: in vivo, Hordeum vulgare
Description: (§1) The herbicidal efficacy of the active compounds or active compound mixtures was scored visually using the treated plots in comparison to untreated control plots. The damage and development of all above-ground parts of the plants were recorded. Scoring was carried out using a percentage scale (100% effect=all plants killed; 50% effect=50% of the plants and the green parts of the plants killed; 0% effect=no noticeable effect=like control plot. The scores of in each case 4 plots were averaged.
(§2) If the observed activity values already exceed the formal sum of the values for the trials with the individual applications, they also exceed the expected value according to Colby which is calculated using the following formula and which is likewise considered to be an indication of synergism (cf. S. R. Colby; in Weeds 15 (1967) p. 20 to 22):
(§3) Crop plants were grown outdoors on plots under natural outdoor conditions, and seeds or rhizome pieces of typical harmful plants were laid out or the natural weed growth was utilized. Treatment with the compositions according to the invention was carried out after the harmful plants had emerged and the crop plants were, generally, at the 2- to 4-leaf stage; in some cases (as stated), application of individual active compounds or active compound combinations was carried out pre-emergence (cf. Section 1) or post-emergence (cf. Section 2) or as a sequential treatment partly pre-emergence and/or post-emergence. After the application, for example 2, 4, 6 and 8 weeks after the application, the effect of the preparations was scored visually by comparison with untreated controls (cf. scoring in Section 1). In the field trial as well, the compositions according to the invention have synergistic herbicidal activity against a broad spectrum of economically important weed grasses and broad-leaved weeds. […] Moreover, the effects in essential phases of the scoring period were above the expected values according to Colby, also indicating synergism. […]

winter wheat [2] = assay: as above; type: in vivo, Triticum aestivum
Description: as §1, §2, §3

Alopecurus myosuroides = assay: Example 9 field trials, application 1-3 leaf stage broad-leaved weeds: herbicidal effect; type: in vivo; settings: 120 to 160 days after application
Description: as §1, §2
(§4) Crop plants were grown outdoors on plots under natural outdoor conditions, and seeds or rhizome pieces of typical harmful plants were laid out or the natural weed growth was utilized. Treatment with the compositions according to the invention was carried out after the harmful plants had emerged and the crop plants were, generally, at the 2- to 4-leaf stage; in some cases (as stated), application of individual active compounds or active compound combinations was carried out pre-emergence (cf. Section 1) or post-emergence (cf. Section 2) or as a sequential treatment partly pre-emergence and/or post-emergence. After the application, for example 2, 4, 6 and 8 weeks after the application, the effect of the preparations was scored visually by comparison with untreated controls (cf. scoring in Section 1). In the field trial as well, the compositions according to the invention have synergistic herbicidal activity against a broad spectrum of economically important weed grasses and broad-leaved weeds. […] Moreover, the effects in essential phases of the scoring period were above the expected values according to Colby, also indicating synergism. In contrast, the crop plants were, as a consequence of the treatments with the herbicidal compositions, damaged only to a small degree, if at all.

Capsella bursa-pastoris = assay: as above; type: in vivo; settings: 120 to 160 days after application
Description: as §1, §2, §4

winter wheat [3] = assay: Example 8 field trial, 4-leaf stage: crop damage; type: in vivo, Triticum aestivum; settings: 28 days after application
Description: as §1, §2, §3

Veronica hederofolia = assay: Example 8 field trial, 4-leaf stage: herbicidal effect; type: in vivo; settings: 28 days after application
Description: as §1, §2, §3

winter barley [4] = assay: Example 1 field trial, 2-4 leaf stage: crop damage; type: in vivo, Hordeum vulgare; settings: winter barley (Hordeum vulgare), in vivo, 28 days
Description: as §1, §2, §4

Papaver rhoeas = assay: Example 1 field trial, 2-4 leaf stage: herbicidal effect; type: in vivo; settings: 1000 g of ai/ha; 28 days after application
Description: as §1, §2, §4

Galium aparine = assay: Example 10 pre-emergence application, fall: herbicidal effect; type: in vivo; settings: 1000 g of ai/ha; 169 days after application
Description: (§5) Seeds or rhizome pieces of monocotyledonous and dicotyledonous weed plants are placed in sandy loam soil in pots and covered with soil. The compositions, formulated in the form of concentrated aqueous solutions, wettable powders or emulsion concentrates, are then applied to the surface of the soil cover as aqueous solution, suspension or emulsion at an application rate of 600 to 800 l of water/ha (converted), in various dosages. After the treatment, the pots are placed in a greenhouse and kept under good growth conditions for the weeds. After the test plants have emerged, the damage to the plants or the negative effects on the emergence is scored visually after a test period of 3 to 4 weeks by comparison with untreated controls. As shown by the test results, the compositions according to the invention have good herbicidal pre-emergence activity against a broad spectrum of weed grasses and broad-leaved weeds.
as §1, §2, §4

winter wheat [5] = assay: Example 10 pre-emergence application, fall: crop damage; type: in vivo, Triticum aestivum; settings: winter wheat (Triticum aestivum), in vivo, 169 days
Description: as §5, §1, §2, §4

Monochoria vaginalis = assay: Example 22 field trial, 2-leaf stage: herbicidal effect; type: in vivo; settings: 14 days after application
Description: as §1, §2, §4

Oryza sativa (rice) [6] = assay: Example 22 field trial, 2-leaf stage: crop damage; type: in vivo
Description: as §1, §2, §4

Sorghum verticilliflorum = assay: Example 13 field trial, 2- to 4-leaf stage: herbicidal effect; type: in vivo; settings: 12.5 g of ai/ha; 17 days after application
Description: as §1, §2, §4

summer wheat = assay: Example 13 field trial, 2- to 4-leaf stage: crop damage; type: in vivo, Triticum aestivum; settings: in vivo
Description: as §1, §2, §4

Lamium amolexicaule = assay: Example 15 field trial, 2- to 4-leaf stage: herbicidal effect; type: in vivo; settings: 28 days after application
Description: as §1, §2, §4

winter wheat [7] = assay: Example 15 field trial, 2- to 4-leaf stage: crop damage; type: in vivo, Triticum aestivum; settings: 28 days after application
Description: as §1, §2, §4

Euphorbia heterophylla = assay: Example 20 field trial, 3-leaf stage: herbicidal effect; type: in vivo; settings: 31 days after application
Description: as §1, §2, §4

Oryza sativa (rice) [8] = assay: Example 20 field trial, 3-leaf stage: crop damage; type: in vivo; settings: in vivo
Description: as §1, §2, §4

[9] = 100 g of ai/ha, 120 to 160 days after application

CC(C)(F)c1nc(N)nc(NC(CCCc2ccccc2)C2CC2)n1 (centres unmarked) [(A2), 4-amino-6-(1-fluoro-1-methylethyl)-2-(4-phenyl-1-cyclopropylbutylamino)-1,3,5-triazine]
damage, HORVW (winter barley [1]; [9]): 0%
damage, TRZAW (winter wheat [2]; [9]): 0%
herbicidal effect, ALOMY (Alopecurus myosuroides; 100 g of ai/ha): 0%
herbicidal effect, CAPBP (Capsella bursa-pastoris; 100 g of ai/ha): 90%

COc1cc(Cl)cc(OCC(C)Nc2nc(N)nc(C(C)(C)F)n2)c1 (centres unmarked) [(A5), 4-amino-6-(1-fluoro-1-methylethyl)-2-[2-(3-chloro-5-methoxyphenoxy)-1-methylethylamino]-1,3,5-triazine]
damage, TRZAW (winter wheat [3]; 25 g of ai/ha): 0%
damage, TRZAW (winter wheat [3]; 50 g of ai/ha): 0%
damage, TRZAW (winter wheat [3]; 100 g of ai/ha): 0%
herbicidal effect, VERHE (Veronica hederofolia; 25 g of ai/ha): 14%
herbicidal effect, VERHE (Veronica hederofolia; 50 g of ai/ha): 22%
herbicidal effect, VERHE (Veronica hederofolia; 100 g of ai/ha): 34%

CC(C)c1ccc(NC(=O)N(C)C)cc1 [(B1.1.1), isoproturon, reference compound]
damage, HORVW (winter barley [4]): 0%
herbicidal effect, PAPRH (Papaver rhoeas): 15%
damage, HORVW (winter barley [1]; winter barley (Hordeum vulgare), in vivo): 0%
damage, TRZAW (winter wheat [2]; winter wheat (Triticum aestivum), in vivo): 0%
herbicidal effect, ALOMY (Alopecurus myosuroides; 2000 g of ai/ha): 0%
herbicidal effect, CAPBP (Capsella bursa-pastoris; 2000 g of ai/ha): 0%
herbicidal effect, GALAP (Galium aparine): 15%
damage, TRZAW (winter wheat [5]): 0%

CCC(CC)Nc1c([N+](=O)[O-])cc(C)c(C)c1[N+](=O)[O-] [(B1.2.2), pendimethalin]
herbicidal effect, GALAP (Galium aparine): 30%

COP(=S)(OC)SCC(=O)N(c1ccc(Cl)cc1)C(C)(C)C [(B1.6.5), anilofos, reference compound]
herbicidal effect, MOOVA (Monochoria vaginalis; 250 g of ai/ha): 95%
damage, ORYSA (Oryza sativa (rice) [6]; 250 g of ai/ha, 14 days after application): 5%

C#CCN(C)c1c(C#N)cnn1-c1nn2c(c1Cl)CCCC2 [(B1.6.14), reference compound]
herbicidal effect, MOOVA (Monochoria vaginalis; 25 g of ai/ha): 82%
damage, ORYSA (Oryza sativa (rice) [6]; in vivo): 0%

COC(=O)c1ccccc1S(=O)(=O)NC(=O)N(C)c1nc(C)nc(OC)n1 [(B2.1.1), tribenuron-methyl]
herbicidal effect, SORVE (Sorghum verticilliflorum): 0%
damage, TRZAS (summer wheat): 0%

COc1cc(OC)nc(NC(=O)NS(=O)(=O)N(C)S(C)(=O)=O)n1 [(B2.1.4), amidosulfuron, reference compound]
herbicidal effect, LAMAM (Lamium amolexicaule; 12.5 g of ai/ha): 10%
herbicidal effect, LAMAM (Lamium amolexicaule; 25 g of ai/ha): 25%
damage, TRZAW (winter wheat [7]; 12.5 g of ai/ha): 0%
damage, TRZAW (winter wheat [7]; 25 g of ai/ha): 0%

CCOc1ccccc1OS(=O)(=O)NC(=O)Nc1nc(OC)cc(OC)n1 [(B2.1.9), ethoxysulfuron, reference compound]
herbicidal effect, EPHHL (Euphorbia heterophylla; 22.5 g of ai/ha): 45%
herbicidal effect, EPHHL (Euphorbia heterophylla; 45 g of ai/ha): 65%
damage, ORYSA (Oryza sativa (rice) [8]): 0%
